Assay results as given in patent publication US12222275B2, “Methods and systems for particle characterisation by imaging free-floating particle movement in liquid enviornment” (VRIJE UNIVERSITEIT BRUSSEL, priority 2019, dated 2025).
Entries after “also recorded” stand apart in the source; their conditions may differ.

How the values were obtained:
[1] = tested on: C. albicans DSY294; assay: Optical nanomotion detection (ONMD) of free yeast cells, antifungal susceptibility test; format: cell-based, Candida albicans
Source text: (§1) To track single cells, in the present example a cross-correlation image registration algorithm was used. The method was documented to efficiently track subtle modifications of keratin networks in living cells and displacements of myoblasts. The algorithm is based on the initial estimation of the cross-correlation peak between the first and every subsequent frame. […] Our program calculates the cell displacement for each frame and saves the trajectories of tracked cells as well as the root mean square of the displacement to an MS Excel file.
(§2) The cellular x-y movements were monitored by recording 12 s long movies (1000 frames) taken at a magnification of 400× (FIG. 13). By periodically recording these movies, temporal behavior of the cells was characterized as a function of different chemical and physical stimuli (FIG. 13A-B). To track the cellular movements of single cells, we used a cross-correlation image registration algorithm. The algorithm is based on the initial estimation of the cross-correlation peak between the first and every subsequent frame. It provides a numerical value for the image translation with a sub-pixel (sub-μm) resolution. The cell displacement for each frame, the trajectories of tracked cells (FIG. 13C) as well as the root mean square of the total displacement (FIG. 13F) were calculated. Single cell nanomotions were characterized by plotting the distribution of the displacements per frame as a violin plot (FIG. 13D). The movements of the set of 20 cells were characterized by plotting grouped cellular displacements per frame as violin plots and the total displacements of 20 cells over 1000 frames as box-and-whisker plots (FIG. 13E).
(§3) Ten μl of each yeast cell culture was dispensed in one of the microwells, using a 4 Well FulTrac micro-Insert (ibidi, Germany) in an imaging micro-dish (Ibidi, Germany). The yeast cells were allowed to sediment for a period of 10 min before starting the measurement. The movement of cells was observed by taking movies of 1000 frames with a framerate of 84 fps using an EMCCD camera (Andor iXon, Oxford Instruments) using a Nikon TE-2000 microscope with a 40× objective. The Petri dish was kept at 30° C. using a microscope stage top incubator (ibidi, Germany).
(§4) The effect of ethanol on the viability of the cells was compared with cells grown in YPD medium as a reference. Therefore, first cell nanomotion videos were recorded and next (after approximately 1 min), 200 μl of ethanol (70% v/v) was added to the top chamber of the 4 micro-Insert wells. Videos were recorded every hour during a period of 5 h. Caspofungin, amphotericin B and fluconazole were used as antifungals in the antifungal susceptibility testing, i.e. to assess their effect on cell viability. Before starting the treatment with the antifungal, reference (no treatment) videos were recorded of yeast cells in YPD medium (time=0 h). Then (at time=1 min) 200 μl of a certain concentration of antifungal was added to the chamber (200 μl) above the 4 microwells. Measurements were taken every hour during a period of 5 h. As abiotic reference particles, silica microbeads (monodisperse silica standard, Whitehouse Scientific) with a diameter of 3 μm were used. The beads were dissolved in YPD medium and the measurements were performed at 30° C.
(§5) The optical nanomotion detection algorithm calculates the cell displacement for each frame and saves the trajectories of tracked cells as well as the root mean square of the displacement to a MS Excel file. The main part of the program is based on the algorithm of Guizar-Sicairos et al.[14], ported from Matlab to Python in the open source image processing library sci-kit image. The Python package nd2 reader (Verweij R, Online: http://www.lighthacking.nl/nd2reader/) was employed to import the videos in the ND2 Nikon format.

[2] = tested on: C. albicans CAF2-1 wild-type strain; assay: Optical nanomotion detection (ONMD), amphotericin B dose-response; format: cell-based, Candida albicans
Source text: as §1, §2, §3
as §4, with “As abiotic reference particles, silica microbeads (monodisperse silica standard, Whitehouse Scientific) with a diameter of 3 μm were used. The beads were dissolved in YPD medium and the measurements were performed at 30° C.” left out
as §5, with “The main part of the program is based on the algorithm of Guizar-Sicairos et al.[14], ported from Matlab to Python in the open source image processing library sci-kit image.” left out

[3] = tested on: C. albicans; conditions: cited from earlier work
[4] = tested on: Candida lusitaniae DSY4590; conditions: FKS1 S638Y, erg4; ref [7] unpublished; cited from earlier work
[5] = tested on: C. albicans DSY1024 (hypersusceptible, mutant for efflux systems); assay: Optical nanomotion detection (ONMD) of free yeast cells, antifungal susceptibility test; format: cell-based, Candida albicans
Source text: as §1, §2, §3, §4, §5

[6] = tested on: C. albicans DSY4614 (candin-resistant clinical strain); assay: as above; format: cell-based, Candida albicans
Source text: as §1, §2, §3, §4, §5

[7] = tested on: C. glabrata DSY562; assay: Optical nanomotion detection (ONMD) of free yeast cells; format: cell-based, Candida glabrata
Source text: as §1, §2
(§6) Ten μl of each yeast cell culture was dispensed in one of the microwells, using a 4 Well FulTrac micro-Insert (ibidi, Germany) in an imaging micro-dish (Ibidi, Germany). The yeast cells were allowed to sediment for a period of 10 min before starting the measurement. […]
(§7) The effect of ethanol on the viability of the cells was compared with cells grown in YPD medium as a reference. Therefore, first cell nanomotion videos were recorded and next (after approximately 1 min), 200 μl of ethanol (70% v/v) was added to the top chamber of the 4 micro-Insert wells. Videos were recorded every hour during a period of 5 h. […] Before starting the treatment with the antifungal, reference (no treatment) videos were recorded of yeast cells in YPD medium (time=0 h). […]
as §5, with “The main part of the program is based on the algorithm of Guizar-Sicairos et al.[14], ported from Matlab to Python in the open source image processing library sci-kit image.” left out

[8] = tested on: C. lusitaniae DSY4590 (resistant clinical strain); assay: as above; format: cell-based, Candida lusitaniae; conditions: caspofungin 10 μg/ml; FIG. 4b left panel
Source text: as §1, §2, §6, §7
as §5, with “The main part of the program is based on the algorithm of Guizar-Sicairos et al.[14], ported from Matlab to Python in the open source image processing library sci-kit image.” left out

[9] = tested on: C. lusitaniae DSY4606; assay: as above; format: cell-based, Candida lusitaniae
Source text: as §1, §2, §6, §7
as §5, with “The main part of the program is based on the algorithm of Guizar-Sicairos et al.[14], ported from Matlab to Python in the open source image processing library sci-kit image.” left out

[10] = tested on: S. cerevisiae BY4742; assay: as above; format: cell-based, Saccharomyces cerevisiae
Source text: as §1, §2, §3, §4, §5

[11] = tested on: S. cerevisiae; conditions: cited from earlier work
[12] = tested on: S. cerevisiae; conditions: cited from earlier work; remark: listed apart in the source
[13] = tested on: osteoblasts; conditions: AFM-cantilever method; cited from earlier work
[14] = caspofungin 10 μg/ml, surface-attached cells, FIG. 6, 18F-K
[15] = caspofungin treated, pooled from 1-5-hour treatments, FIG. 7d
[16] = ethanol 70%, ten minutes after addition
[17] = ethanol 70% v/v, ten minutes after addition and diffusive mixing, t-test
[18] = ethanol 70%, Wilcoxon test, FIG. 15

C[C@@H]1[C@H](O)[C@@H](C)/C=C/C=C/C=C/C=C/C=C/C=C/C=C/[C@H](O[C@@H]2O[C@H](C)[C@@H](O)[C@H](N)[C@@H]2O)C[C@@H]2O[C@](O)(C[C@@H](O)C[C@@H](O)[C@H](O)CC[C@@H](O)C[C@@H](O)CC(=O)O[C@H]1C)C[C@H](O)[C@H]2C(=O)O [amphotericin B]
concentration at which the cellular nanomotion is increased, as multiple of MIC [1]: around 10 times the MIC
concentration at which the total displacement shows an increase ([1]; after 1 h treatment, FIG. 16F): 10 µg/mL
increase of total displacement after 2 h treatment ([1]; after 2 h treatment, FIG. 16G): the increase is reduced
nanomotion signal after 1 h treatment ([1]; amphotericin B 100 μg/ml, 1 h, FIG. 2d): decreased to values close to those recorded on dead cells
time of treatment after which a significant decrease in the mean total displacement was detected ([1]; amphotericin B 100 μg/ml, t-test, FIG. 2d): 1 h
time of treatment after which a significant decrease in cellular displacements and total displacement was detected ([1]; amphotericin B 500 μg/ml, FIG. 16A, 20A): 1 h
cellular nanomotion after 1 h treatment, whole set of 20 cells ([1]; amphotericin B at a high concentration (500 μg/ml), 1 h, FIG. 20A): decreased to values close to those recorded on dead cells
concentration at which the cellular nanomotion is increased, as multiple of MIC [2]: around 10 times the MIC
concentration at which the mean total displacement increased ([2]; after 1 h treatment, FIG. 2g): 10 µg/mL
concentration at which the mean total displacement increased ([2]; after 2 h treatment, FIG. 2h): 4 µg/mL
mean total displacement at higher drug concentrations ([2]; concentrations above 10 μg/ml (1 h) or 4 μg/ml (2 h)): decreased
MIC value detected by ONMD (lowest concentration where a change in nanomotion can be observed) ([2]; total displacement of 20 cells, 'this strain'): 1 to 4 µg/mL
reported amphotericin B MIC value, classical microtitre plate method ([3]; 'this strain' (CAF2-1 or DSY294, not clear)): 0.3 µg/mL
reported amphotericin B MIC value ([3]; C. albicans DSY strains): 0.5 µg/mL
susceptibility of the strain (characteristics) [4]: FKS1, S638Y, erg4 Resistant

CC[C@H](C)C[C@H](C)CCCCCCCCC(=O)N[C@H]1C[C@@H](O)[C@@H](NCCN)NC(=O)[C@@H]2[C@@H](O)CCN2C(=O)[C@H]([C@H](O)CCN)NC(=O)[C@H]([C@H](O)[C@@H](O)c2ccc(O)cc2)NC(=O)[C@@H]2C[C@@H](O)CN2C(=O)[C@H]([C@@H](C)O)NC1=O [caspofungin]
killing of cells judged by nanomotion ([5]; caspofungin 10 μg/ml, FIG. 2f, 16D): did kill
total displacement of cells attached to concanavalin A coated glass, treated versus untreated [5, 14]: no significant decrease of the total displacement; also recorded: no significant difference
additional fcrit of treated cells [5, 15]: around 2 Hz
critical frequency (fcrit) distribution of treated cells, extent of broadening [5, 15]: most extended
total displacement of cells attached to concanavalin A coated glass, treated versus untreated [1, 14]: no significant decrease of the total displacement; also recorded: no significant difference
time of treatment after which a significant decrease in (mean) total displacement was detected ([1]; caspofungin 100 μg/ml, FIG. 2d, 16B): 1 h
critical frequency (fcrit) distribution of treated cells [1, 15]: broadening of their fcrit
effect on nanomotion ([6]; caspofungin 10 μg/ml, FIG. 2e, 16E): did not affect the nanomotion
total displacement of cells attached to concanavalin A coated glass, treated versus untreated ([6]; caspofungin 10 μg/ml, surface-attached cells, FIG. 6): no significant decrease of the total displacement
critical frequency (fcrit) distribution of treated cells [6, 15]: broadening of their fcrit
time of treatment after which the cells were dead (nanomotion AFST) ([7]; caspofungin, FIG. 4a): 2 h
effect of treatment on nanomotion [8]: not affected
killing of cells judged by nanomotion ([9]; caspofungin 10 μg/ml, FIG. 4b right panel): killed
time of treatment after which a significant decrease of the total displacement was observed ([10]; caspofungin 10 μg/ml, FIG. 5a): 3 h

CCO [ethanol]
time of treatment after which a significant decrease of the total displacement was measured ([1]; ethanol 70% v/v, t-test, FIG. 2c): 60 min
displacements in the set of 20 cells [1, 16]: reduction of the displacements
change of total displacement [7, 17]: significant (t-test) decrease
time after which a significant decrease of the total displacement was observed [7, 18]: 60 min
displacements in the set of 20 cells [7, 16]: reduction of the displacements
change of total displacement [9, 17]: significant (t-test) decrease
displacements in the set of 20 cells [9, 16]: reduction of the displacements
change of total displacement [10, 17]: significant (t-test) decrease
time after which a significant decrease of the total displacement was observed [10, 18]: 60 min
displacements in the set of 20 cells [10, 16]: reduction of the displacements
higher ethanol concentrations that impair the cell membrane integrity, eventually apoptotic cell death [11]: > 10%
moderate ethanol concentrations that affect the growth rate [11]: 5-7%

OC(Cn1cncn1)(Cn1cncn1)c1ccc(F)cc1F [fluconazole]
time of treatment after which a significant decrease in (mean) total displacement was detected ([1]; fluconazole 400 μg/ml, FIG. 2d, 16C): 1 h
effect on total displacement after 1 h of treatment ([10]; fluconazole 400 μg/ml, 1 h, FIG. 5b): no effect
time of treatment after which a significant decrease in total displacement was obvious ([10]; fluconazole 400 μg/ml, FIG. 5b): 5 h
fluconazole MIC value [12]: 1 to 8 µg/mL

cytochalasin
cellular movement after depolymerizing the actin cytoskeleton [13]: reduced cellular movement
